According to patent US10479780B2, “Aminopyrazole derivatives” (Chugai Seiyaku Kabushiki Kaisha, priority 2015, dated 2019):
pIC50: −log10 of the molar value. Like-named read-outs stand apart in the source and are kept apart here.

Columns and labels:
Format in all cases: biochemical
human Yes1 enzyme = target: T1, human Yes1 enzyme (Homo sapiens, UniProt P07947); test: Yes1 enzyme inhibitory activity (time-resolved fluorometry, biotinylated peptide phosphorylation); details: read-out: YES_IC50
T1 construct: made in house
T1 sequence (P07947 whole entry): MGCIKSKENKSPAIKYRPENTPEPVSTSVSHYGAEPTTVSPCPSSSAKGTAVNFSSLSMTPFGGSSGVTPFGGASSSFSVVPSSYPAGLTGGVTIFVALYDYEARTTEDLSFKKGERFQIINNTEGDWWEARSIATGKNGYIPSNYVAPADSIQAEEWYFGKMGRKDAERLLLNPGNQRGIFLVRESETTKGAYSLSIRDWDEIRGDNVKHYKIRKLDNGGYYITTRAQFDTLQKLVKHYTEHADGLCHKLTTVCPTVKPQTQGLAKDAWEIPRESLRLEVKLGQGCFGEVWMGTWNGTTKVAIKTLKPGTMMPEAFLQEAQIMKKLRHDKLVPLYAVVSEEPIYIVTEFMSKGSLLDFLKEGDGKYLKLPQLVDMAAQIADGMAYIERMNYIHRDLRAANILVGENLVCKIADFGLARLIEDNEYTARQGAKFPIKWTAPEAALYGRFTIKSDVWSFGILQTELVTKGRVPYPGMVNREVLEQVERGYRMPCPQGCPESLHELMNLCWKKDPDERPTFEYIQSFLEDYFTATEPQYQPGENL
In short: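 Inhibition was expressed against a compound-free control to give IC50, using TR-FRET read-out (Eu-cryptate anti-pTyr antibody, streptavidin-XL665).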

human Src enzyme = target: T2, human Src enzyme (Homo sapiens, UniProt P12931); test: Src enzyme inhibitory activity (time-resolved fluorometry, biotinylated peptide phosphorylation); details: read-out: SRC_IC50
T2 construct: purchased Carna Biosciences, Inc. 08-173
T2 sequence (P12931 whole entry): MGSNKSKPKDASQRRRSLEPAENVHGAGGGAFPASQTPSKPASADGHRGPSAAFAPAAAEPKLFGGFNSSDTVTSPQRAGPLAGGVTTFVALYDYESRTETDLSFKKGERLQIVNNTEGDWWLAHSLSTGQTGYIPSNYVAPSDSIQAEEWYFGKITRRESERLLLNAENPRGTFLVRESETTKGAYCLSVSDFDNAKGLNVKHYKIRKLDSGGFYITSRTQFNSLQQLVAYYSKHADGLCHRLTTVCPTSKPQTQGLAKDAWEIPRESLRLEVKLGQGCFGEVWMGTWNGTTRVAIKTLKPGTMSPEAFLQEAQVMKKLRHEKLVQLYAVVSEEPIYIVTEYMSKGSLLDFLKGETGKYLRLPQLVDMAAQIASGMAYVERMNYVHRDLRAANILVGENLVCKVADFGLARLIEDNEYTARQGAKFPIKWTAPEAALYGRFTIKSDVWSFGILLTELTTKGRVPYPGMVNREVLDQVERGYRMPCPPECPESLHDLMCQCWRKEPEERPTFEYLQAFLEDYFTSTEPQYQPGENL
In short: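 Compounds were tested for blocking tyrosine phosphorylation of a biotinylated peptide substrate by recombinant human Src. Phosphorylated product was quantified by time-resolved fluorometry using europium cryptate and XL665 conjugates, and IC50 was calculated against the compound-free control.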

human Lck enzyme = target: T3, human Lck enzyme (Homo sapiens, UniProt P06239); test: Lck enzyme inhibitory activity (time-resolved fluorometry, biotinylated peptide phosphorylation); details: read-out: LCK_IC50
T3 construct: purchased Carna Biosciences, Inc. 08-170
T3 sequence (P06239 whole entry): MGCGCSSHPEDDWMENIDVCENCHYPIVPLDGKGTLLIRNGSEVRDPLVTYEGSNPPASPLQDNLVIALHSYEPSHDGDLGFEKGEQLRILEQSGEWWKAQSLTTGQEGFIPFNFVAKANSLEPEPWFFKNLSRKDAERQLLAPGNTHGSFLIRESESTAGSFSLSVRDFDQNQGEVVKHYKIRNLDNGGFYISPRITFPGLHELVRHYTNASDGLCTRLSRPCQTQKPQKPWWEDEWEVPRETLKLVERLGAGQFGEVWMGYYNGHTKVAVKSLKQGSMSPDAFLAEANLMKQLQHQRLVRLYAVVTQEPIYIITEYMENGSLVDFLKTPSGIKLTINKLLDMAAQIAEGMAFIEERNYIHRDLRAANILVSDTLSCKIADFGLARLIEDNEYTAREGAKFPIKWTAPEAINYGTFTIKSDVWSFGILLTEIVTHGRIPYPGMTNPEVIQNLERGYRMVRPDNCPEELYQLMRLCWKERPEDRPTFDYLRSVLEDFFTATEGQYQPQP
In short: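 Readout pairs a europium cryptate-labelled anti-phosphotyrosine antibody with XL665-streptavidin, measured by time-resolved fluorescence. IC50 derived from percent inhibition against untreated controls.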

[1] = biotinylated peptide phosphorylation

Cc1cc(Oc2c(F)cccc2F)ncc1-n1ncc(C(=O)c2cc3cc(F)c(N4C(=O)NC5(CCOCC5)C4=O)cc3[nH]2)c1N [Example 5-1-368, 3-[2-[5-amino-1-[6-(2,6-difluorophenoxy)-4-methylpyridin-3-yl]pyrazole-4-carbonyl]-5-fluoro-1H-indol-6-yl]-8-oxa-1,3-diazaspiro[4.5] decane-2,4-dione]
pIC50 (human Yes1 enzyme): 8.42 | pIC50 (human Src enzyme): 7.21 | pIC50 (human Lck enzyme): 8.06

Cc1cc2cc(C(=O)c3cnn(-c4cnc(Oc5c(F)cccc5F)cc4C)c3N)[nH]c2cc1N1C(=O)NC2(CCCC2)C1=O [Example 5-1-367, 3-[2-[5-amino-1-[6-(2,6-difluorophenoxy)-4-methylpyridin-3-yl]pyrazole-4-carbonyl]-5-methyl-1H-indol-6-yl]-1,3-diazaspiro[4.4] nonane-2,4-dione]
pIC50 (human Yes1 enzyme): 8.25 | pIC50 (human Src enzyme): 7.11 | pIC50 (human Lck enzyme): 7.80

Cc1cc(Oc2c(F)cccc2F)ncc1-n1ncc(C(=O)c2cc3cc(OCC(F)F)c(NC4COC4)cc3[nH]2)c1N [Example 4-23-008, {5-amino-1-[6-(2,6-difluorophenoxy)-4-methylpyridin-3-yl]pyrazol-4-yl}-[5-(2,2-difluoroethoxy)-6-(oxetan-3-ylamino)-1H-indol-2-yl]methanone]
pIC50 (human Yes1 enzyme; [1]): 8.48 | pIC50 (human Src enzyme; [1]): 7.64 | pIC50 (human Lck enzyme; [1]): 8.34

Cc1cc(-n2ncc(C(=O)c3cc4cc(OC5CCN(C(C)C)CC5)c(C5CCOCC5)cc4[nH]3)c2N)ccc1Oc1ccccc1F [Example 5-1-247, (5-amino-1-(4-(2-fluorophenoxy)-3-methylphenyl)-1H-pyrazol-4-yl)(5-((1-isopropylpiperidin-4-yl)oxy)-6-(tetrahydro-2H-pyran-4-yl)-1H-indol-2-yl)methanone]
pIC50 (human Yes1 enzyme): 8.68 | pIC50 (human Src enzyme): 6.92 | pIC50 (human Lck enzyme): 7.47

Cc1cc(Oc2c(F)cccc2F)ncc1-n1ncc(C(=O)c2cc3cc(N4CCOCC4)c(NS(=O)(=O)C4CC4)cc3[nH]2)c1N [Example 4-24-017, N-[2-[5-amino-1-[6-(2,6-difluorophenoxy)-4-methylpyridin-3-yl]pyrazole-4-carbonyl]-5-morpholin-4-yl-1H-indol-6-yl]cyclopropanesulfonamide]
pIC50 (human Yes1 enzyme; [1]): 8.39 | pIC50 (human Src enzyme; [1]): 6.77 | pIC50 (human Lck enzyme; [1]): 7.19

Cc1cc2cc(C(=O)c3cnn(-c4cnc(Oc5c(F)cccc5F)cc4C)c3N)[nH]c2cc1NS(=O)(=O)C1CCCC1 [Example 5-1-317, N-[2-[5-amino-1-[6-(2,6-difluorophenoxy)-4-methylpyridin-3-yl]pyrazole-4-carbonyl]-5-methyl-1H-indol-6-yl]cyclopentanesulfonamide]
pIC50 (human Yes1 enzyme): 7.80 | pIC50 (human Src enzyme): 6.30 | pIC50 (human Lck enzyme): 6.96

Cc1cc2cc(C(=O)c3cnn(-c4cnc(Oc5ccccc5F)cc4C)c3N)[nH]c2cc1NS(=O)(=O)CC(=O)N1CCCC1 [Example 5-1-121, N-[2-[5-amino-1-[6-(2-fluorophenoxy)-4-methylpyridin-3-yl]pyrazole-4-carbonyl]-5-methyl-1H-indol-6-yl]-2-oxo-2-pyrrolidin-1-ylethanesulfonamide]
pIC50 (human Yes1 enzyme): 8.77 | pIC50 (human Src enzyme): 7.05 | pIC50 (human Lck enzyme): 7.85

Cc1cc(-n2ncc(C(=O)c3cc4cc(OC5CCN(C(C)C)CC5)c(N5C(=O)N[C@@H](Cc6ccccc6)C5=O)cc4[nH]3)c2N)ccc1Oc1ccccc1F [Example 5-1-294, (5S)-3-[2-[5-amino-1-[4-(2-fluorophenoxy)-3-methylphenyl]pyrazole-4-carbonyl]-5-(1-propan-2-ylpiperidin-4-yl)oxy-1H-indol-6-yl]-5-benzylimidazolidine-2,4-dione]
pIC50 (human Yes1 enzyme): 8.66 | pIC50 (human Src enzyme): 6.02 | pIC50 (human Lck enzyme): 6.96

Cc1cc2cc(C(=O)c3cnn(-c4cnc(Oc5c(F)cccc5F)cc4C)c3N)[nH]c2cc1N1C(=O)NC2(CCNC2)C1=O (stereo not drawn) [Example 5-1-358, 3-[2-[5-amino-1-[6-(2,6-difluorophenoxy)-4-methylpyridin-3-yl]pyrazole-4-carbonyl]-5-methyl-1H-indol-6-yl]-1,3,7-triazaspiro[4.4] nonane-2,4-dione]
pIC50 (human Yes1 enzyme): 8.74 | pIC50 (human Src enzyme): 7.68 | pIC50 (human Lck enzyme): 8.38

Cc1cc(-n2ncc(C(=O)c3cc4cc(OC5CCN(C(C)C)CC5)c(N5CCC(N6CCOCC6)CC5)cc4[nH]3)c2N)c(F)cc1Oc1ccccc1F [Example 5-1-215, [5-amino-1-[2-fluoro-4-(2-fluorophenoxy)-5-methylphenyl]pyrazol-4-yl]-[6-(4-morpholin-4-ylpiperidin-1-yl)-5-(1-propan-2-ylpiperidin-4-yl)oxy-1H-indol-2-yl]methanone]
pIC50 (human Yes1 enzyme): 9.09 | pIC50 (human Src enzyme): 7.09 | pIC50 (human Lck enzyme): 8.22

Cc1cc(-n2ncc(C(=O)c3cc4cc(OC(F)F)c(N5C(=O)NC(C)(C)C5=O)cc4[nH]3)c2N)ccc1Oc1ccccc1F [Example 5-1-179, 3-[2-[5-amino-1-[4-(2-fluorophenoxy)-3-methylphenyl]pyrazole-4-carbonyl]-5-(difluoromethoxy)-1H-indol-6-yl]-5,5-dimethylimidazolidine-2,4-dione]
pIC50 (human Yes1 enzyme): 8.40 | pIC50 (human Src enzyme): 6.09 | pIC50 (human Lck enzyme): 6.74

Cc1cc2cc(C(=O)c3cnn(-c4cnc(Oc5ccccc5F)cc4C)c3N)[nH]c2cc1NS(=O)(=O)c1cc(C(F)(F)F)ccn1 [Example 5-1-485, N-[2-[5-amino-1-[6-(2-fluorophenoxy)-4-methylpyridin-3-yl]pyrazole-4-carbonyl]-5-methyl-1H-indol-6-yl]-4-(trifluoromethyl) pyridine-2-sulfonamide]
pIC50 (human Yes1 enzyme; [1]): 8.17 | pIC50 (human Src enzyme; [1]): 6.28 | pIC50 (human Lck enzyme; [1]): 6.96

COc1ccnc(S(=O)(=O)Nc2cc3[nH]c(C(=O)c4cnn(-c5cnc(Oc6c(F)cccc6F)cc5C)c4N)cc3cc2F)c1 [Example 5-1-513, N-[2-[5-amino-1-[6-(2,6-difluorophenoxy)-4-methylpyridin-3-yl]pyrazole-4-carbonyl]-5-fluoro-1H-indol-6-yl]-4-methoxypyridine-2-sulfonamide]
pIC50 (human Yes1 enzyme; [1]): 8.43 | pIC50 (human Src enzyme; [1]): 6.29 | pIC50 (human Lck enzyme; [1]): 7.01

COc1cc2cc(C(=O)c3cnn(-c4cnc(Oc5c(F)cccc5F)cc4C)c3N)[nH]c2cc1N1CCCS1(=O)=O [Example 4-2-121, [5-amino-1-[6-(2,6-difluorophenoxy)-4-methylpyridin-3-yl]pyrazol-4-yl]-[6-(1,1-dioxo-1,2-thiazolidin-2-yl)-5-methoxy-1H-indol-2-yl]methanone]
pIC50 (human Yes1 enzyme; [1]): 9.27 | pIC50 (human Src enzyme; [1]): 8.10 | pIC50 (human Lck enzyme; [1]): 8.68

CC(C)N1CCC(c2cc3[nH]c(C(=O)c4cnn(-c5ccc(Oc6ccccc6F)cc5)c4N)cc3cc2F)CC1 [Example 5-1-007, [5-amino-1-[4-(2-fluorophenoxy)phenyl]pyrazol-4-yl]-[5-fluoro-6-(1-propan-2-ylpiperidin-4-yl)-1H-indol-2-yl]methanone]
pIC50 (human Yes1 enzyme): 8.96 | pIC50 (human Src enzyme): 7.96 | pIC50 (human Lck enzyme): 8.66

Cc1cc(Oc2c(F)cccc2F)ncc1-n1ncc(C(=O)c2cc3cc(SC(F)F)c(NS(=O)(=O)CCCF)cc3[nH]2)c1N [Example 5-1-320, N-[2-[5-amino-1-[6-(2,6-difluorophenoxy)-4-methylpyridin-3-yl]pyrazole-4-carbonyl]-5-(difluoromethylsulfanyl)-1H-indol-6-yl]-3-fluoropropane-1-sulfonamide]
pIC50 (human Yes1 enzyme): 7.74 | pIC50 (human Src enzyme): 6.17 | pIC50 (human Lck enzyme): 6.85

Cc1cc(Oc2ccccc2F)ncc1-n1ncc(C(=O)c2cc3cc(OCC(F)F)c(NS(=O)(=O)CCCF)cc3[nH]2)c1N [Example 4-24-029, N-[2-[5-amino-1-[6-(2-fluorophenoxy)-4-methylpyridin-3-yl]pyrazole-4-carbonyl]-5-(2,2-difluoroethoxy)-1H-indol-6-yl]-3-fluoropropane-1-sulfonamide]
pIC50 (human Yes1 enzyme; [1]): 8.80 | pIC50 (human Src enzyme; [1]): 7.27 | pIC50 (human Lck enzyme; [1]): 7.54

Cc1cc(Oc2c(F)cccc2F)ncc1-n1ncc(C(=O)c2cc3cc(OC4CCN(C(C)C)CC4)c(N4C(=O)NC(C)(C)C4=O)cc3[nH]2)c1N [Example 5-1-188, 3-[2-[5-amino-1-[6-(2,6-difluorophenoxy)-4-methylpyridin-3-yl]pyrazole-4-carbonyl]-5-(1-propan-2-ylpiperidin-4-yl)oxy-1H-indol-6-yl]-5,5-dimethylimidazolidine-2,4-dione]
pIC50 (human Yes1 enzyme): 9.52 | pIC50 (human Src enzyme): 8.34 | pIC50 (human Lck enzyme): 8.92

Cc1cc(Oc2ccccc2F)ccc1-n1ncc(C(=O)c2cc3cc(N4CCOCC4)c(NS(C)(=O)=O)cc3[nH]2)c1N [Example 4-24-013, N-[2-[5-amino-1-[4-(2-fluorophenoxy)-2-methylphenyl]pyrazole-4-carbonyl]-5-morpholin-4-yl-1H-indol-6-yl]methanesulfonamide]
pIC50 (human Yes1 enzyme; [1]): 8.80 | pIC50 (human Src enzyme; [1]): 7.40 | pIC50 (human Lck enzyme; [1]): 7.92

Cc1cc(Oc2ccccc2F)ccc1-n1ncc(C(=O)c2cc3cc(OCC(F)F)c(N4C(=O)NC5(CCNC5)C4=O)cc3[nH]2)c1N (stereo not drawn) [Example 5-1-349, 3-[2-[5-amino-1-[4-(2-fluorophenoxy)-2-methylphenyl]pyrazole-4-carbonyl]-5-(2,2-difluoroethoxy)-1H-indol-6-yl]-1,3,7-triazaspiro [4.4]nonane-2,4-dione]
pIC50 (human Yes1 enzyme): 9.29 | pIC50 (human Src enzyme): 8.16 | pIC50 (human Lck enzyme): 8.60

Cc1cc(-n2ncc(C(=O)c3cc4cc(N5CCOCC5)c(N5C(=O)NC(C)(C)C5=O)cc4[nH]3)c2N)ccc1Oc1ccccc1F [Example 5-1-164, 3-[2-[5-amino-1-[4-(2-fluorophenoxy)-3-methylphenyl]pyrazole-4-carbonyl]-5-morpholin-4-yl-1H-indol-6-yl]-5,5-dimethylimidazolidine-2,4-dione]
pIC50 (human Yes1 enzyme): 8.74 | pIC50 (human Src enzyme): 6.15 | pIC50 (human Lck enzyme): 7.16
